Patent US9242996B2 (Novartis AG, priority 2013, dated 2016)
pIC50: −log10 of the molar value.

Each compound was assayed against activated ERK2 (Homo sapiens (Human), UniProt P28482) (assay: Activated ERK2 kinase assay, ERK2 New conditions (AlphaScreen, ERKtide phosphorylation)). Details: 0.25 nM ERK2, 200 nM ERKtide peptide, 35 μM ATP, 30 min preincubation.
Format: biochemical
Method in brief: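 0.25 nM ERK2 preincubated 30 min with compound, then reacted 2–3 h at ambient temperature with 200 nM ERKtide and 35 µM ATP (final) in HEPES pH 7.5 buffer. EDTA stop; phospho-peptide detected by AlphaScreen after overnight incubation; IC50 from four-parameter fit.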

activated ERK2, sequence (P28482 whole entry): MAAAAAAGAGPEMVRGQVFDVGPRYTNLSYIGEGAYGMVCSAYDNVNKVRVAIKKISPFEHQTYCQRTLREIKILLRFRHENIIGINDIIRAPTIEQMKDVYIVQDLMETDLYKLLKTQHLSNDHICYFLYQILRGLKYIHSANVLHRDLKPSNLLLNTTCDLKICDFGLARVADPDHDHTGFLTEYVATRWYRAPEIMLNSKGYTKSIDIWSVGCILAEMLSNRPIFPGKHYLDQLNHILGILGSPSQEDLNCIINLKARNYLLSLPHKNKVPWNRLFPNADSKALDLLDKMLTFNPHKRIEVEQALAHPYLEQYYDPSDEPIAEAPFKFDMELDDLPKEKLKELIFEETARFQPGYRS

SMILES	pIC50
Nc1ncc(C2CCS(=O)(=O)CC2)cc1-c1ccc(C(=O)NCc2ccccc2)c(F)c1 [Example 78, 4-(2-amino-5-(1,1-dioxidotetrahydro-2H-thiopyran-4-yl)pyridin-3-yl)-N-benzyl-2-fluorobenzamide]	6.76
Cc1cnccc1-c1cnc(N)c(-c2ccc(C(=O)NCc3cccc(S(C)(=O)=O)c3)cc2)n1 [Example 139, 4-(3-amino-6-(3-methylpyridin-4-yl)pyrazin-2-yl)-N-(3-(methylsulfonyl)benzyl)benzamide]	8.10
Nc1ncc(-c2ccc(=O)[nH]c2)nc1-c1ccc(C(=O)N[C@H](CO)c2ccccc2)cc1 [Example 129, (S)-4-(3-amino-6-(6-oxo-1,6-dihydropyridin-3-yl)pyrazin-2-yl)-N-(2-hydroxy-1-phenylethyl)benzamide]	8.69
Cn1cc(-c2cnc(N)c(-c3ccc(C(=O)NCc4ccsc4)c(F)c3)c2)cn1 [Example 239, 4-(2-amino-5-(1-methyl-1H-pyrazol-4-yl)pyridin-3-yl)-2-fluoro-N-(thiophen-3-ylmethyl) benzamide]	7.55
Nc1ncc([C@H]2CC[S@+]([O-])CC2)cc1-c1ccc(C(=O)N[C@H](CO)c2cccc(Cl)c2)c(F)c1 [Example 211, 4-(2-amino-5-((1S,4r)-1-oxidotetrahydro-2H-thiopyran-4-yl)pyridin-3-yl)-N—((S)-1-(3-chlorophenyl)-2-hydroxyethyl)-2-fluorobenzamide]	8.26
NC[C@@H](NC(=O)c1ccc(-c2nc(C3CC3)cnc2N)cc1F)c1ccccc1 [Example 252, (S)-N-(2-amino-1-phenylethyl)-4-(3-amino-6-cyclo-propylpyrazin-2-yl)-2-fluorobenzamide]	8.59
Nc1ncc([C@H]2C[C@H]3COCC(=O)N3C2)cc1-c1ccc(C(=O)N[C@H](CO)c2cccc(Cl)c2)c(F)c1 [Example 8, 4-(2-amino-5-((7R,8aS)-4-oxohexahydro-1H-pyrrolo[2,1-c][1,4]oxazin-7-yl)pyridin-3-yl)-N—((S)-1-(3-chlorophenyl)-2-hydroxyethyl)-2-fluorobenzamide]	8.39
Nc1ncc(C2CCC(=O)NC2)cc1-c1ccc(C(=O)N[C@H](CO)c2cccc(Cl)c2)c(F)c1 (stereo partly drawn) [Example 25, 4-(2-amino-5-(6-oxopiperidin-3-yl)pyridin-3-yl)-N—((S)-1-(3-chlorophenyl)-2-hydroxyethyl)-2-fluorobenzamide]	9.46
Nc1ncc([C@@H]2CN[C@H](C(=O)O)C2)cc1-c1ccc(C(=O)N[C@H](CO)c2cccc(Cl)c2)c(F)c1 [Example 222, (2S,4R)-4-(6-amino-5-(4-(((S)-1-(3-chlorophenyl)-2-hydroxyethyl)carbamoyl)-3-fluorophenyl)pyridin-3-yl)pyrrolidine-2-carboxylic acid]	7.61
Nc1ncc([C@@H]2CCOC2)nc1-c1ccc(C(=O)N[C@H](CO)c2ccccc2)cc1 [Example 136, 4-(3-amino-6-((S)-tetrahydrofuran-3-yl)pyrazin-2-yl)-N—((S)-2-hydroxy-1-phenylethyl)benzamide]	8.35
C[C@H]1C[C@@H](c2cnc(N)c(-c3ccc(C(=O)NCc4cccc(S(C)(=O)=O)c4)cc3)n2)CCO1 [Example 101, 4-(3-amino-6-((2S,4S)-2-methyltetrahydro-2H-pyran-4-yl)pyrazin-2-yl)-N-(3-(methylsulfonyl)benzyl)benzamide]	7.11
Nc1ncc(C2CCOCC2)nc1-c1ccc(C(=O)NC(c2ccccc2)C(F)(F)F)c(F)c1 (racemic) [Example 51, (+/−)-4-(3-amino-6-(tetrahydro-2H-pyran-4-yl)pyrazin-2-yl)-2-fluoro-N-(2,2,2-trifluoro-1-phenylethyl)benzamide]	7.57
CS(=O)(=O)c1cccc([C@@H](CO)NC(=O)c2ccc(-c3nc(C4CC4)cnc3N)cc2F)c1 [Example 281, (S)-4-(3-amino-6-cyclo-propylpyrazin-2-yl)-2-fluoro-N-(2-hydroxy-1-(3-(methylsulfonyl)phenyl)ethyl) benzamide]	8.75
COC(=O)[C@@H]1C[C@H](c2cnc(N)c(-c3ccc(C(=O)N[C@H](CO)c4cccc(Cl)c4)c(F)c3)c2)CN1 [Example 223, (2S,4R)-methyl 4-(6-amino-5-(4-(((S)-1-(3-chlorophenyl)-2-hydroxyethyl)carbamoyl)-3-fluorophenyl)pyridin-3-yl)pyrrolidine-2-carboxylate]	7.98

Continued, values first:

pIC50	SMILES
9.19	Cn1cc(-c2cnc(N)c(-c3ccc(C(=O)N[C@H](CO)c4cccc(Cl)c4)c(F)c3)c2)c(C#N)n1 [Example 160, (S)-4-(2-amino 5-(3-cyano-1-methyl-1H-pyrazol-4-yl)pyridin-3-yl)-N-(1-(3-chlorophenyl)-2-hydroxyethyl)-2-fluorobenzamide]
6.75	CCOCCc1cnc(N)c(-c2ccc(C(=O)N[C@H](CO)c3ccccc3)c(F)c2)n1 [Example 72, (S)-4-(3-amino-6-(2-ethoxyethyl)pyrazin-2-yl)-2-fluoro-N-(2-hydroxy-1-phenylethyl)benzamide]
8.49	CN1CCC(c2cnc(N)c(-c3ccc(C(=O)N[C@H](CO)c4cccc(Cl)c4)c(F)c3)c2)CC1=O (stereo partly drawn) [Example 26, 4-(2-amino-5-(1-methyl-2-oxopiperidin-4-yl)pyridin-3-yl)-N—((S)-1-(3-chlorophenyl)-2-hydroxyethyl)-2-fluorobenzamide]
9.38	Cc1oncc1-c1cnc(N)c(-c2ccc(C(=O)N[C@H](CO)c3ccccc3)c(F)c2)n1 [Example 157, (S)-4-(3-amino-6-(5-methylisoxazol-4-yl)pyrazin-2-yl)-2-fluoro-N-(2-hydroxy-1-phenylethyl)benzamide]
8.41	CS(=O)(=O)N1CCC(c2cnc(N)c(-c3ccc(C(=O)N[C@H](CO)c4ccccc4)c(F)c3)n2)CC1 [Example 56, (S)-4-(3-amino-6-(1-(methylsulfonyl)piperidin-4-yl)pyrazin-2-yl)-2-fluoro-N-(2-hydroxy-1-phenylethyl)benzamide]
9.59	Cn1nccc1-c1cnc(N)c(-c2ccc(C(=O)N[C@H](CO)c3cc(F)cc(Cl)c3)c(F)c2)c1 [Example 232, (S)-4-(2-amino-5-(1-methyl-1H-pyrazol-5-yl)pyridin-3-yl)-N-(1-(3-chloro-5-fluorophenyl)-2-hydroxyethyl)-2-fluorobenzamide]
9.66	Cc1cccc([C@@H](CO)NC(=O)c2ccc(-c3cc(-c4ccnn4C)cnc3N)cc2F)c1 [Example 231, (S)-4-(2-amino-5-(1-methyl-1H-pyrazol-5-yl)pyridin-3-yl)-2-fluoro-N-(2-hydroxy-1-(m-tolyl)ethyl) benzamide]
8.72	Cn1nncc1-c1cnc(N)c(-c2ccc(C(=O)N[C@H](CO)c3cccc(F)c3)c(F)c2)c1 [Example 305, (S)-4-(2-amino-5-(1-methyl-1H-1,2,3-triazol-5-yl)pyridin-3-yl)-2-fluoro-N-(1-(3-fluorophenyl)-2-hydroxyethyl) benzamide]
8.48	Cc1noc(C)c1-c1cnc(N)c(-c2ccc(C(=O)N[C@H](CO)c3ccccc3)c(F)c2)n1 [Example 156, (S)-4-(3-amino-6-(3,5-dimethylisoxazol-4-yl)pyrazin-2-yl)-2-fluoro-N-(2-hydroxy-1-phenylethyl)benzamide]
9.42	Cc1nn(C)cc1-c1cnc(N)c(-c2ccc(C(=O)N[C@H](CN)c3ccccc3)c(F)c2)c1 [Example 153, (S)-N-(2-amino-1-phenylethyl)-4-(2-amino-5-(1,3-dimethyl-1H-pyrazol-4-yl)pyridin-3-yl)-2-fluorobenzamide]
8.29	Cc1ncc(-c2cnc(N)c(-c3ccc(C(=O)N[C@H](CO)c4cccc(F)c4)c(F)c3)c2)n1C [Example 163, (S)-4-(2-amino-5-(1,2-dimethyl-1H-imidazol-5-yl)pyridin-3-yl)-2-fluoro-N-(1-(3-fluorophenyl)-2-hydroxyethyl)benzamide]
9.08	Cn1cc(-c2cnc(N)c(-c3ccc(C(=O)N[C@H](CO)c4cccc(Cl)c4)c(F)c3)c2)nn1 [Example 128, (S)-4-(2-amino-5-(1-methyl-1H-1,2,3-triazol-4-yl)pyridin-3-yl)-N-(1-(3-chlorophenyl)-2-hydroxyethyl)-2-fluorobenzamide]
9.66	C[C@@H](NC(=O)c1ccc(-c2cc(-c3cnnn3C)cnc2N)cc1F)c1cccc(Cl)c1 [Example 303, (R)-4-(2-amino-5-(1-methyl-1H-1,2,3-triazol-5-yl)pyridin-3-yl)-N-(1-(3-chlorophenyl)ethyl)-2-fluorobenzamide]
8.72	Cn1cc(-c2cnc(N)c(-c3ccc(C(=O)N[C@H](CO)c4ccccc4)c(F)c3)n2)cn1 [Example 148, (S)-4-(3-amino-6-(1-methyl-1H-pyrazol-4-yl)pyrazin-2-yl)-2-fluoro-N-(2-hydroxy-1-phenylethyl)benzamide]
7.62	Nc1ncc(C2CNC(=O)C2)cc1-c1ccc(C(=O)N[C@H](CO)c2ccccc2)c(F)c1 (stereo partly drawn) [Example 218, 4-(2-amino-5-(5-oxopyrrolidin-3-yl)pyridin-3-yl)-2-fluoro-N—((S)-2-hydroxy-1-phenylethyl)benzamide]
8.32	CN1C[C@H](c2cnc(N)c(-c3ccc(C(=O)N[C@H](CO)c4cccc(Cl)c4)c(F)c3)c2)CC1=O [Example 44, 4-(2-amino-5-((S)-1-methyl-5-oxopyrrolidin-3-yl)pyridin-3-yl)-N—((S)-1-(3-chlorophenyl)-2-hydroxyethyl)-2-fluorobenzamide]
9.53	Cc1nn(C)cc1-c1cnc(N)c(-c2ccc(C(=O)N[C@H](CO)c3cccc(S(C)(=O)=O)c3)c(F)c2)c1 [Example 284, (S)-4-(2-amino-5-(1,3-dimethyl-1H-pyrazol-4-yl)pyridin-3-yl)-2-fluoro-N-(2-hydroxy-1-(3-(methylsulfonyl)phenyl)ethyl) benzamide]
8.80	Cc1c(-c2cnc(N)c(-c3ccc(C(=O)N[C@H](CO)c4ccccc4)c(F)c3)c2)cnn1C [Example 170, (S)-4-(2-amino-5-(1,5-dimethyl-1H-pyrazol-4-yl)pyridin-3-yl)-2-fluoro-N-(2-hydroxy-1-phenylethyl)benzamide]
